2 molecules from patent publication EP0172321B1, “Squarylium charge generating dye and electrophotographic photoconductor” (International Business Machines Corporation, priority 1984, dated 1986) can be followed below.

Data set [1] relates to Salmonella typhimurium: TA1535, TA1537, TA1538, TA98 and TA100. The experiment in a line: Ames Salmonella/microsome assay, five standard strains. It counts as cell-based. Details: unit not given here. As to conditions: Ames plates, DMSO solvent. The procedure:
(§1) This mutagenicity testing was performed using DMSO as the solvent. Six dose levels were tested in duplicate, with and without metabolic activation, in five tester strains (TA1535, TA1537, TA1538, TA98, and TA100). The tests were repeated to ensure reproducibility.
Ames test of the 2,4-di-(o-hydroxy-p-pyrrolidino phenyl) cyclobutene diylium-1,3-diolate (hydroxy pyrrolidino squarylium or OHPYRRSQ) of the present invention dye was conducted.
This compound was examined for mutagenic activity in the Ames Salmonella/microsome assay using the five standard strains of Salmonella typhimurium: TA1535, TA1537, TA1538, TA98 and TA100. All assays were performed in duplicate, both in the presence and the absence of a rat-liver metabolic activation system. DMSO was used as the solvent.
The compound was tested on two separate days at doses ranging from […]. Low-level S-9 was used in the first assay and high-level S-9 was used in the confirming assay.

The nature of data set [2]: Ames test for mutagenicity, tester strain TA98. Type of data set: cell-based, Salmonella typhimurium. The following applies: read-out: TA98 × background. Here is the method: (§2) Ames test of the prior art dye 2,4-di-(o-hydroxy-p-dimethylamino phenyl) cyclobutene diylium-1,3- diolate was then conducted. This dye is of the type shown in Example 11 of aforesaid US-A-3,824,099.
as §1
In general terms: The Ames test detects mutagens through reverse mutation in bacteria.

Data set [3] deals with TA98. The experiment in a line: Ames test for mutagenicity, tester strain TA98. It counts as cell-based, Salmonella typhimurium. Here is the method: as §2, §1
The nature of data set [4]: Ames test for mutagenicity, tester strain TA1538. It counts as cell-based, Salmonella typhimurium. Here is the method: as §2, §1
The subject of data set [5] is TA1538. In words: Ames test for mutagenicity, tester strain TA1538. It counts as cell-based, Salmonella typhimurium. The procedure: as §2, §1
Setting [6] is: purified dye, dimethylamino phenol precursor distilled, DMSO solvent, replicate Test no./Assay no.
The mark [7] stands for this setting: without purification of the dye, replicate Assay no.

Where “and” joins values, the source holds several entries; their conditions need not be identical. Identical values can stand only once.

Turning to `O=C1C(=C2C=CC(=[N+]3CCCC3)C=C2O)C([O-])=C1c1ccc(N2CCCC2)cc1O` [OHPYRRSQ, 2,4-di-(o-hydroxy-p-pyrrolidinophenyl) cyclobutene diylium-1,3-diolate], the “Dose level at and above which precipitate was observed” value in data set [1] was no less than 500.

Consider `CN(C)c1ccc(C2=C([O-])C(=C3C=CC(=[N+](C)C)C=C3O)C2=O)c(O)c1` [OHSQ, 2,4-di-(o-hydroxy-p-dimethylaminophenyl) cyclobutene diylium-1,3-diolate], for which the fold induction in data set [2] (ames ta98, purified dye, dimethylamino phenol precursor distilled, DMSO solvent, replicate Test no./Assay no.) came to 2.4; in data set [2] (ames ta98, without purification of the dye, replicate Assay no.), 2.6; in data set [4] (ames ta1538, purified dye, dimethylamino phenol precursor distilled, DMSO solvent, replicate Test no./Assay no., read-out: TA1538 × background), 2.9; in data set [4] (ames ta1538, without purification of the dye, replicate Assay no., read-out: TA1548 × background), 4.9. For the same molecule, the “TA98 × background” value is 2.3 × background and 2.7 × background and 2.90 × background in data set [3] (setting [6]); 3.3 × background in data set [3] (setting [7]). The “TA1538 × background” value in data set [5] (setting [6]) was 2.9 × background and 2.8 × background and 3.3 × background. For the same molecule, the “TA1548 × background” value in data set [5] (setting [7]) was 6.8 × background.
